For data set [1], the system named is mLBP (soluble mLIF-R α-chain). The data set can be described thus: Competitive inhibition of [125I]hLIF binding to mLBP (hLIF-like activity score). Further details: species or system mouse. The note with it: logarithmic scale, hLIF = 100%, mLIF = 0%; mean±SEM. An excerpt:
Reference is made herein to the subject molecule having at least about 35% hLIF-like activity. More preferably, the molecule has at least about 50% hLIF-like activity and even more preferably at least about 70% hLIF-like activity. hLIF-like activity is defined in terms of the ability for a molecule to compete for ^125 I-hLIF binding to mLBP based on the equation: [formula]
wherein xm is the dose of unlabelled mLIF; xh is the dose of unlabelled hLIF; xc is the dose of the molecule (e.g. protein, polypeptide or peptide) required to give 50% inhibition of ^125 I-hLIF binding to mLBP.
Normal mouse serum was used as a source of mLBP. […] Bound and free radioactivity were separated by vacuum filtration of the supernatant and the ConA-Sepharose pellet was washed once with 200 μl cold PBS. Assay plates containing the cell pellet were then exposed to a phosphor screen (Molecular Dynamics, Calif., U.S.A.) for 16-24 hours and the results quantified using Imagequant version 3.0 software (Molecular Dynamics). […]

Data set [2] deals with mLBP (soluble mLIF-R α-chain). Put plainly: Competitive inhibition of [125I]mLIF binding to mLBP. The note with it: in words. Details: species or system mouse. On the procedure:
Normal mouse serum was used as a source of mLBP. For competitive binding experiments, 50 μl aliquots of unlabelled LIF or a mouse-human LIF hybrid were added to 96-well filtration assay plates containing a 0.65 micron Durapore membrane (Millipore, Mass., U.S.A.) with 20 μl aliquots of a 1/10 to 1/20 dilution of normal mouse serum, 10 μl radiolabelled ligand and 25 μl Concanavalin-A Sepharose 4B (ConA-Sepharose, Pharmacia, Uppsala) (diluted 1:4 in 100 mM sodium acetate pH6.0 containing 1 mM MnCl2, 1 mM MgCl2 and 1 mM CaCl2; this and all subsequent buffers contained 0.02% w/v sodium azide and 0.02% v/v Tween 20) and incubated at room temperature overnight with agitation. Bound and free radioactivity were separated by vacuum filtration of the supernatant and the ConA-Sepharose pellet was washed once with 200 μl cold PBS. Assay plates containing the cell pellet were then exposed to a phosphor screen (Molecular Dynamics, Calif., U.S.A.) for 16-24 hours and the results quantified using Imagequant version 3.0 software (Molecular Dynamics).
The structural integrity of all m-hLIF chimeras was also verified by evaluating their ability to bind correctly to the mLIF-R α-chain.

Data set [3] has as its system murine M1 leukaemic colonies. Put plainly: M1 differentiation assay (specific biological activity). The format is cell-based. The method, then:
The functional activity of the m-hLIF hybrids was assayed by their ability to induce differentiation in murine M1 leukaemic colonies. M1 differentiation assays were performed as described (Metcalf et al, 1988). The specific activity of each hybrid was expressed as the units of M1 differentiation-inducing activity per milligram of protein.
The protein concentration of each purified sample was determined by amino acid analysis, and the amount of biologically active protein in each sample was estimated by its ability to induce differentiation in mouse M1 myeloid leukaemic colonies. An internal standard of mLIF (10^4 U/ml) was used to normalise all M1 cell bioassays (50 U/ml of LIF is defined as the concentration of LIF required for half maximal stimulation).

For data set [4], the system named is M1 cells. The data set can be described thus: Serum dose inhibition of M1 colony differentiation by normal mouse serum (mLBP). The following applies: up to 200 U/ml hLIF. In kind it is cell-based, murine. On the procedure: For serum dose inhibition assays, the specific activity of each LIF preparation was determined by titration in cultures of M1 cells. Aliquots of normal mouse serum (containing approximately 5 μg/ml mLBP) were then added in serial 2-fold dilutions to cultures of M1 cells that also contained a just maximal concentration (200 U) of mLIF (SEQ. ID. NO:1), hLIF (SEQ. ID. NO:2) or m-hLIF hybrid. Assays including mLIF and hLIF gave identical results when either crude mouse serum or a highly purified preparation of mLBP was used. Hybrids were assessed for mLIF or hLIF character from the dilution of serum required to block 50% of their M1 cell differentiation-inducing activity.
A 1:4 to 1:8 dilution of normal mouse serum (equivalent to ~0.5-1 μg/ml mLBP) is required to block 50% of the M1 differentiation-inducingactivity of up to 200 U/ml mLIF, whereas, due to the higher affinity of hLIF for mLBP, a 1:8192 dilution of serum (~0.6 ng/ml mLBP) is sufficient to block 50% of the M1 activity of up to 200 U/ml hLIF. This ability of mLBP to inhibit the differentiation-inducing activity of LIF in a species-specific manner was utilized as a second assay that distinguished hLIF from mLIF. […]

Data set [5] deals with M1 cells. The following applies: background statement; cited from earlier work.

With “hLIF: human leukaemia inhibitory factor, H1-180 (SEQ. ID. NO:2), recombinant from E. coli”, in data set [1], the “hLIF-like activity (percentage human score) calculated from ID50 for inhibition of [125I]hLIF binding to mLBP” value is 100%. In addition, the “ability to compete for [125I]mLIF binding to mLBP” value in data set [2] was “approximately equal ability”. The “biological activity in a mouse cell bioassay, in words” value in data set [3] is “nearly equal biological activities”. In addition, in data set [3] (mouse M1 cells, 50 U/ml = half maximal stimulation), the “specific biological activity (units of LIF activity per milligram of protein)” value is 1-3×10^8 U/mg. Further, the “mLBP concentration equivalent to serum dilution blocking 50% of M1 activity” value in data set [4] was ~ 0.6 ng/ml. For the same substance, the “mLBP more potent inhibitor of hLIF than mLIF (inhibition of biological responses to LIF)” value in data set [5] was “approximately 1000 fold”.
